Six compounds from patent US11111248B2, “Crystal form of 2-(6-methyl-pyridin-2-yl)-3-yl-[6-amido-quinolin-4-yl]-5,6-dihydro-4H-pyrrolo[1,2-B]pyrazole, preparation method therefor and pharmaceutical composition thereof” (Hangzhou SoliPharma Co., Ltd., priority 2017, dated 2021) can be followed below.

Holding throughout (format): physicochemical
One data set can be described thus: water solubility test. The conditions noted are these: for Solubility: 25° C.±2° C., visual clarity, 5 mg sample, max 100 mL water. Here is the method: Accurately weighed 5 mg samples in a 200 mL flask which was in a water bath with temperature 25° C.±2° C., added water in a geometric fashion the flask, stirred (about 200 r/min), and observed by naked eyes to see if it was clear. Water was added every 3 mins, maximum water amount 100 mL.

Data set [1] can be described thus: isothermal sorption (dynamic vapor sorption). Conditions: 0% RH to 80% RH; for hygroscopicity: isothermal sorption. Here is the method: Dynamic vapor sorption data and isothermal sorption data were collected on TA Instruments Q5000 TGA. Method: A sample of 1 to 10 mg was placed in a platinum pan; the weight change of the sample during the change in relative humidity from 0% to 80% to 0% was measured.

The nature of data set [2]: thermal phase stability from DSC and TGA thermograms. Conditions: for phase transformation on heating: DSC and TGA thermograms. The method, then:
[…] data were collected on TA Instruments Q200 DSC. Method: A sample of 1 to 10 mg was placed in an aluminum pan with a pin-holed lid, and the sample was heated from room temperature to 200° C. at a heating rate of 10° C./min under the protection of dry nitrogen purge at 40 mL/min.
Thermogravimetric analysis data were collected on TA Instruments Q500 TGA. Method: A sample of 5 to 15 mg was placed in a platinum pan, using High Resolution™, the sample was heated from room temperature to 350° C. at a heating rate of 10° C./min under the protection of dry nitrogen purge at 40 mL/min.

≈ marks a conversion by molar mass, not a printed value. Entries after “also recorded” stand apart in the source; their conditions may differ.

One may read the Solubility as how much of the substance goes into solution per volume. High values mean much dissolved substance, low ones little dissolved substance. For the compound `Cc1cccc(-c2nn3c(c2-c2ccnc4ccc(C(N)=O)cc24)CCC3)n1` [LY2157299 Form 4, 2-(6-methyl-pyridin-2-yl)-3-(6-amido-quinolin-4-yl)-5,6-dihydro-4h-pyrrolo[1,2-b]pyrazole], in “water solubility test”, the “water solubility” value is given as “about 100 ug/mL” and the Solubility turned out to be 0.1 mg/mL (≈ 271 µM). Moreover, in data set [1], the “weight change, isothermal sorption curve” value is on record as 0.95% and the “hygroscopicity” value is “slightly hygroscopic”.

Take `Cc1cccc(-c2nn3c(c2-c2ccnc4ccc(C(N)=O)cc24)CCC3)n1` [LY2157299 Monohydrate, 2-(6-methyl-pyridin-2-yl)-3-(6-amido-quinolin-4-yl)-5,6-dihydro-4h-pyrrolo[1,2-b]pyrazole]: the “dehydration and start of phase transition temperature” value in data set [2] (DSC) was found to be 133 °C. The “phase transformation on heating” value in data set [2] is “dehydrates under temperature and its phase transformes; also recorded: dehydrates under temperature and has phase transformation”. For the same compound, the “phase transition temperature lower than that of Form 2” value in data set [2] (DSC thermograms, difference to Form 2) was 60 °C. The same compound had a Solubility in “water solubility test” of under 0.05 mg/mL. Moreover, the “hygroscopicity” value in data set [1] is “slightly hygroscopic”.

As to `Cc1cccc(-c2nn3c(c2-c2ccnc4ccc(C(N)=O)cc24)CCC3)n1` [LY2157299 Form 2, 2-(6-methyl-pyridin-2-yl)-3-(6-amido-quinolin-4-yl)-5,6-dihydro-4h-pyrrolo[1,2-b]pyrazole], in the data set “water solubility test”, the “water solubility” value is listed as “about 200 ug/mL” and the Solubility amounted to 0.2 mg/mL (≈ 541 µM). Moreover, in data set [1], the “weight change, isothermal sorption curve” value is 0.25% and the “hygroscopicity” value was “slightly hygroscopic”.

With `Cc1cccc(-c2nn3c(c2-c2ccnc4ccc(C(N)=O)cc24)CCC3)n1` [LY2157299 Form 3, 2-(6-methyl-pyridin-2-yl)-3-(6-amido-quinolin-4-yl)-5,6-dihydro-4h-pyrrolo[1,2-b]pyrazole], the “phase transformation on heating” value in data set [2] is recorded as “no phase transformation before melting”. In the data set “water solubility test”, the “water solubility” value is given as “about 150 μg/mL” and the Solubility was determined as 0.15 mg/mL (≈ 406 µM). Moreover, the “hygroscopicity” value in data set [1] is “non-hygroscopic”.

Take `Cc1cccc(-c2nn3c(c2-c2ccnc4ccc(C(N)=O)cc24)CCC3)n1` [LY2157299 Form 1, 2-(6-methyl-pyridin-2-yl)-3-(6-amido-quinolin-4-yl)-5,6-dihydro-4h-pyrrolo[1,2-b]pyrazole]: in data set [2], the “phase transformation on heating” value is reported as “no phase transformation before melting”. Further, in the data set “water solubility test”, the “water solubility” value is “about 160 ug/mL” and the Solubility came to 0.16 mg/mL (≈ 433 µM). In addition, the “hygroscopicity” value in data set [1] is reported as “non-hygroscopic”.

For the compound `Cc1cccc(-c2nn3c(c2-c2ccnc4ccc(C(N)=O)cc24)CCC3)n1` [LY2157299 Form 7, 2-(6-methyl-pyridin-2-yl)-3-(6-amido-quinolin-4-yl)-5,6-dihydro-4h-pyrrolo[1,2-b]pyrazole], in the data set “water solubility test”, the “water solubility” value was “about 100 μg/mL” and the Solubility worked out at 0.1 mg/mL (≈ 271 µM).
